Assay results reported in US9133219B2, “Bicyclic antibiotics” (Basilea Pharmaceutica AG, priority 2009, dated 2015).
Values after ≈ are worked out from the molar mass of the structure shown.

What was measured:
Format in all cases: cell-based
[1] = test system: Staphylococcus epidermidis; assay: Anti-microbial activity assay, MIC by broth microdilution; conditions: Staphylococcus epidermidis; strain ATCC14990
Protocol: (§1) Anti-Microbial Activity Assay.
(§2) The antibacterial activity of compounds is determined by the minimal inhibitory concentration (MIC) method. MICs for all bacteria except pneumococci and Haemophilus influenzae are obtained by broth microdilution with cation-adjusted Mueller-Hinton broth (CAMHB; BBL), according to CLSI guidelines (National Committee for Clinical Laboratory Standards. 2003. Methods for dilution antimicrobial susceptibility tests for bacteria that grow aerobically, 5th ed.; approved standard M7-A6. National Committee for Clinical Laboratory Standards, Wayne, Pa.), with the following modifications: (i) for pneumococci CAMHB is supplemented with 5% (^v/v) horse serum; (ii) for Haemophilus influenzae CAMHB is supplemented with 5% (^v/v) Fildes enrichment (BBL) (Pankuch, G. A., Hoellman, D. B., Lin, G., Bajaksouzian, S., Jacobs, M. R., and Appelbaum, P. C. 1998. Activity of HMR 3647 compared to those of five agents against Haemophilus influenzae and Moraxella catarrhalis by MIC determination and time-kill assay. Antimicrob. Agents Chemother. 42:3032-3034). Microtiter plates are incubated at 35° C. in ambient air for 20 to 24 h, then inspected using an illuminated microtiter plate reader fitted with a magnifying mirror (MIC 2000; Cooke Laboratory Products, Alexandria, Va.). Compounds of the present invention are tested against several bacteria strains comprising some Acinetobacter baumannii, Enterococcus faecalis, Enterococcus faecitan, Escherichia coli, Haemophilus influenzae, Klebsiella pneumoniae, Pseudomonas aeruginosa, Staphylococcus aureus, Staphylococcus epidermidis and Streptococcus pneumoniae.

[2] = test system: Escherichia coli; assay: as above; conditions: Escherichia coli; strain UB1005; read-out: MIC Escherichia coli UB1005
Protocol: as §1, §2

[3] = test system: Staphylococcus aureus; assay: as above; conditions: Staphylococcus aureus; strain ATCC29213; read-out: MIC Staphylococcus aureus ATCC29213
Protocol: as §1, §2

[4] = test system: Streptococcus pneumoniae; assay: Anti-microbial activity assay, MIC by broth microdilution (CAMHB with 5% horse serum); conditions: Streptococcus pneumoniae; strain ATCC49619; CAMHB with 5% horse serum; read-out: MIC Streptococcus pneumoniae ATCC49619
Protocol: as §1, §2

[5] = test system: Staphylococcus aureus and/or Staphylococcus epidermidis; assay: MIC summary statement, staphylococci; conditions: generally, for Staphylococcus aureus and/or Staphylococcus epidermidis
Protocol: as §1, §2

[6] = test system: Staphylococcus aureus and/or Staphylococcus epidermidis and/or Streptococcus pneumoniae and/or Escherichia coli; assay: MIC summary statement, staphylococci, pneumococci and E. coli; conditions: generally, for S. aureus and/or S. epidermidis and/or S. pneumoniae and/or E. coli; in most case of less than 2 mg/L
Protocol: as §1, §2

[7] = test system: Staphylococcus aureus and/or Staphylococcus epidermidis and/or Streptococcus pneumoniae; assay: MIC summary statement, staphylococci and pneumococci; conditions: generally, for Staphylococcus aureus and/or Staphylococcus epidermidis and/or Streptococcus pneumoniae
Protocol: as §1, §2

Row | SMILES | MIC [1] [µg/mL] | MIC [2] [µg/mL] | MIC [3] [µg/mL] | MIC [4] [µg/mL] | MIC [5] [µg/mL] | MIC [6] [µg/mL] | MIC [7] [µg/mL]
1 | COc1ccc2ncc(OCCCN3CCC(CNCc4ccc5c(n4)NC(=O)CO5)CC3)nc2c1 [Example 9, 6-[({1-[3-(7-methoxy-quinoxalin-2-yloxy)-propyl]-piperidin-4-ylmethyl}-amino)-methyl]-4H-pyrido[3,2-b][1,4]oxazin-3-one] | 4 (≈ 8.12 µM) | 4 (≈ 8.12 µM) | ≤ 2 | ≤ 2 | ≤ 2 | ≤ 4 | ≤ 2
2 | COc1ccc2ncc(SCCN3CCC(NC(=O)c4ccc5c(c4)NC(=O)CO5)CC3)nc2c1 [Example 36, 3-oxo-3,4-dihydro-2H-benzo[1,4]oxazine-6-carboxylic acid {1-[2-(7-methoxy-quinoxalin-2-ylsulfanyl)-ethyl]-piperidin-4-yl}-amide] | ≤ 2 | 4 (≈ 8.1 µM) | ≤ 2 | ≤ 2 | ≤ 2 | ≤ 4 | ≤ 2
3 | COc1ccc2ncc(SCCN3CCC(NC(=O)c4cc5c(cc4Cl)SCC(=O)N5)CC3)nc2c1 [Example 37, 7-chloro-3-oxo-3,4-dihydro-2H-benzo[1,4]thiazine-6-carboxylic acid {1-[2-(7-methoxy-quinoxalin-2-ylsulfanyl)-ethyl]-piperidin-4-yl}-amide] | ≤ 2 | ≤ 2 | ≤ 2 | ≤ 2 | ≤ 2 | ≤ 4 | ≤ 2
4 | COc1ccc2ncc(SCCN3CCC(NCCSc4cccs4)CC3)nc2c1 [Example 38, {1-[2-(7-methoxy-quinoxalin-2-ylsulfanyl)-ethyl]-piperidin-4-yl}-[2-(thiophen-2-ylsulfanyl)-ethyl]-amine] | ≤ 2 | 16 (≈ 34.7 µM) | ≤ 2 | ≤ 2 | ≤ 2 | – | ≤ 2
5 | COc1ccc2ncc(SCCN3CCC(NC(=O)c4ccc5c(c4)OCCO5)CC3)nc2c1 [Example 39, 2,3-dihydro-benzo[1,4]dioxine-6-carboxylic acid {1-[2-(7-methoxy-quinoxalin-2-ylsulfanyl)-ethyl]-piperidin-4-yl}-amide] | ≤ 2 | ≥ 32 | ≤ 2 | ≤ 2 | ≤ 2 | – | ≤ 2
6 | COc1ccc2ncc(SCCN3CCC(NCc4ccc5c(c4)OCCO5)CC3)nc2c1 [Example 41, (2,3-dihydro-benzo[1,4]dioxin-6-ylmethyl)-{1-[2-(7-methoxy-quinoxalin-2-ylsulfanyl)-ethyl]-piperidin-4-yl}-amine] | ≤ 2 | 8 (≈ 17.1 µM) | ≤ 2 | ≤ 2 | ≤ 2 | – | ≤ 2
7 | COc1ccc2ncc(SCCN3CCC(NCc4cc(-c5cccs5)on4)CC3)nc2c1 [Example 42, {1-[2-(7-methoxy-quinoxalin-2-ylsulfanyl)-ethyl]-piperidin-4-yl}-(5-thiophen-2-yl-isoxazol-3-ylmethyl)-amine] | ≤ 2 | 8 (≈ 16.6 µM) | ≤ 2 | ≤ 2 | ≤ 2 | – | ≤ 2
8 | COc1ccc2ncc(SCCN3CCC(N(C)Cc4ccc5c(c4)OCCO5)CC3)nc2c1 [Example 43, (2,3-dihydro-benzo[1,4]dioxin-6-ylmethyl)-{1-[2-(7-methoxy-quinoxalin-2-ylsulfanyl)-ethyl]-piperidin-4-yl}-methyl-amine] | ≤ 2 | 16 (≈ 33.3 µM) | ≤ 2 | ≤ 2 | ≤ 2 | – | ≤ 2
9 | COc1ccc2ncc(SCCN3CCC(NC(=O)c4cc5c(cc4Cl)SCCN5)CC3)nc2c1 [Example 44, 7-chloro-3,4-dihydro-2H-benzo[1,4]thiazine-6-carboxylic acid {1-[2-(7-methoxy-quinoxalin-2-ylsulfanyl)-ethyl]-piperidin-4-yl}-amide] | ≤ 2 | 4 (≈ 7.55 µM) | ≤ 2 | 4 (≈ 7.55 µM) | ≤ 2 | ≤ 4 | –
10 | COc1ccc2ncc(SCCN3CCC(NCc4ccc5c(n4)NC(=O)CO5)CC3)nc2c1 [Example 45, 6-({1-[2-(7-methoxy-quinoxalin-2-ylsulfanyl)-ethyl]-piperidin-4-ylamino}-methyl)-4H-pyrido[3,2-b][1,4]oxazin-3-one] | ≤ 2 | ≤ 2 | ≤ 2 | ≤ 2 | ≤ 2 | ≤ 4 | ≤ 2
11 | COc1ccc2ncc(SCCN3CCC(NCc4ccc5c(c4)NC(=O)CS5)CC3)nc2c1 [Example 46, 6-({1-[2-(7-methoxy-quinoxalin-2-ylsulfanyl)-ethyl]-piperidin-4-ylamino}-methyl)-4H-benzo[1,4]thiazin-3-one] | ≤ 2 | ≤ 2 | ≤ 2 | ≤ 2 | ≤ 2 | ≤ 4 | ≤ 2
12 | CCN(Cc1ccc2c(c1)OCCO2)C1CCN(CCSc2cnc3ccc(OC)cc3n2)CC1 [Example 47, (2,3-dihydro-benzo[1,4]dioxin-6-ylmethyl)-ethyl-{1-[2-(7-methoxy-quinoxalin-2-ylsulfanyl)-ethyl]-piperidin-4-yl}-amine] | ≤ 2 | 32 (≈ 64.7 µM) | ≤ 2 | ≤ 2 | ≤ 2 | – | ≤ 2
13 | COc1ccc2ncc(SCCN3CCC(NCc4cc5c(cc4Cl)SCC(=O)N5)CC3)nc2c1 [Example 48, 7-chloro-6-({1-[2-(7-methoxy-quinoxalin-2-ylsulfanyl)-ethyl]-piperidin-4-ylamino}-methyl)-4H-benzo[1,4]thiazin-3-one] | ≤ 2 | ≤ 2 | ≤ 2 | ≤ 2 | ≤ 2 | ≤ 4 | ≤ 2
14 | COc1ccc2ncc(SCCN3CCC(NCc4cc5c(cc4Cl)SCCN5)CC3)nc2c1 [Example 49, (7-chloro-3,4-dihydro-2H-benzo[1,4]thiazin-6-ylmethyl)-{1-[2-(7-methoxy-quinoxalin-2-ylsulfanyl)-ethyl]-piperidin-4-yl}-amine] | ≤ 2 | 4 (≈ 7.75 µM) | ≤ 2 | ≤ 2 | ≤ 2 | ≤ 4 | ≤ 2
15 | COc1ccc2ncc(SCCN3CCC(NC(=O)c4ccc5c(n4)NC(=O)CS5)CC3)nc2c1 [Example 50, 3-oxo-3,4-dihydro-2H-pyrido[3,2-b][1,4]thiazine-6-carboxylic acid {1-[2-(7-methoxy-quinoxalin-2-ylsulfanyl)-ethyl]-piperidin-4-yl}-amide] | ≤ 2 | 4 (≈ 7.83 µM) | ≤ 2 | ≤ 2 | ≤ 2 | ≤ 4 | ≤ 2
16 | COc1ccc2ncc(SCCN3CCC(NC(=O)c4nc5c(cc4Cl)SCC(=O)N5)CC3)nc2c1 [Example 51, 7-chloro-3-oxo-3,4-dihydro-2H-pyrido[3,2-b][1,4]thiazine-6-carboxylic acid {1-[2-(7-methoxy-quinoxalin-2-ylsulfanyl)-ethyl]-piperidin-4-yl}-amide] | ≤ 2 | 4 (≈ 7.34 µM) | ≤ 2 | 4 (≈ 7.34 µM) | ≤ 2 | ≤ 4 | –
17 | COc1ccc2ncc(SCCN3CCC(N(C)C(=O)c4ccc5c(c4)NC(=O)CS5)CC3)nc2c1 [Example 52, 3-oxo-3,4-dihydro-2H-benzo[1,4]thiazine-6-carboxylic acid {1-[2-(7-methoxy-quinoxalin-2-ylsulfanyl)-ethyl]-piperidin-4-yl}-methyl-amide] | ≤ 2 | 16 (≈ 30.6 µM) | ≤ 2 | ≤ 2 | ≤ 2 | – | ≤ 2
18 | COc1ccc2ncc(SCCN3CCC(NC(=O)c4cc5c(cc4Cl)SCC(=O)N5)CC3)cc2c1 [Example 54, 7-chloro-3-oxo-3,4-dihydro-2H-benzo[1,4]thiazine-6-carboxylic acid {1-[2-(6-methoxy-quinolin-3-ylsulfanyl)-ethyl]-piperidin-4-yl}-amide] | ≤ 2 | 4 (≈ 7.36 µM) | ≤ 2 | 4 (≈ 7.36 µM) | ≤ 2 | ≤ 4 | –
19 | COc1ccc2ncc(SCCN3CCC(NC(=O)c4ccc5c(n4)NC(=O)CS5)CC3)cc2c1 [Example 55, 3-oxo-3,4-dihydro-2H-pyrido[3,2-b][1,4]thiazine-6-carboxylic acid {1-[2-(6-methoxy-quinolin-3-ylsulfanyl)-ethyl]-piperidin-4-yl}-amide] | ≤ 2 | 16 (≈ 31.4 µM) | ≤ 2 | ≤ 2 | ≤ 2 | – | ≤ 2
